Reference: patent US20210000814A1, “RIMEGEPANT FOR CGRP RELATED DISORDERS” (Biohaven Pharmaceutical Holding Company Ltd., priority 2018, published 2021)

What was measured:
[1] = BHV3000-301 Phase 3 trial: safety and tolerability; type: in vivo, human; conditions: Study 301
Method: Methods • In a double-blind, randomized, placebo-controlled, multicenter study (Study 301, NCT03235479) adults ≥[…] of age with at least a 1-year history of ICHD 3-beta migraine were eligible to participate. Following a 3- to 28-day screening period, subjects were randomized to receive rimegepant 75 mg or matching placebo and instructed to treat a single migraine attack with 1 dose of the blinded study drug (rimegepant or placebo) when headache pain reached moderate or severe intensity. The coprimary endpoints were pain freedom at 2 hours postdose and freedom from the most bothersome symptom (MBS) at 2 hours postdose. Safety assessments included adverse events (AEs), ECGs, vital signs, physical measurements, and routine laboratory tests, including assessment of liver function. Unless stated otherwise, values presented are mean±SD.

[2] = human, in vivo
Method: Clinical Trial—BHV3000-303: Phase 3: Double-Blind, Randomized, Placebo-Controlled, Safety and Efficacy Trial of BHV-3000 (Rimegepant) Orally Discintegrating Tablet (ODT) for the Acute Treatment of Migraine (ClinicalTrials.gov Identifier: NCT03461757) • A phase 3 clinical study was conducted with 1812 participants, as follows.
Study Design • Study Type: Interventional (Clinical Trial) • Actual Enrollment: 1812 participants • Allocation: Randomized • Intervention Model: Parallel Assignment • Masking: Triple (Participant, Care Provider, Investigator) • Primary Purpose: Treatment • Official Title: BHV3000-303: Phase 3, Double-Blind, Randomized, Placebo Controlled, Safety and Efficacy Trial of BHV-3000 (Rimegepant) Orally Disintegrating Tablet (ODT) for the Acute Treatment of Migraine • Actual Study Start Date: Feb. 27, 2018 • Actual Primary Completion Date: Oct. 8, 2018 • Actual Study Completion Date: Oct. 15, 2018

[3] = BHV3000-201 open label long-term safety study, interim analysis; type: in vivo, human
Method: Clinical Trial—BHV3000-201: Open Label Safety Study in Acute Treatment of Migraine (ClinicalTrials.gov Identifier: NCT 03266588)
A phase 2/3 clinical study is conducted with about 2000 participants, as follows.
The purpose of this study is to evaluate safety and tolerability of BHV3000 (rimegepant).
Study Design • Study Type: Interventional (Clinical Trial) • Estimated Enrollment: 2000 participants • Intervention Model: Single Group Assignment • Masking: None (Open Label) • Primary Purpose: Treatment • Official Title: A Multicenter, Open Label Long-Term Safety Study of BHV3000 in the Acute Treatment of Migraine • Actual Study Start Date: Aug. 30, 2017 • Estimated Primary Completion Date: July 2019 • Estimated Study Completion Date: July 2019
1. To assess the safety and tolerability of rimegepant (BHV-3000) by measuring the frequency and severity of adverse events and discontinuations due to adverse events [Time Frame: 52 weeks]Number of subjects with treatment-emergent adverse events as assessed through laboratory tests, ECGs, physical exam findings (safety and tolerability)
1. ALT or AST >3×ULN with total bilirubin >2×ULN [Time Frame: 52 weeks]elevated liver function tests
2. hepatic related adverse events and hepatic related adverse events that lead to discontinuation [Time Frame: 52 weeks]adverse events related to liver
Patients were allowed to treat migraine attacks of all severities (mild to severe) up to once daily for a full year. The initial results for hepatic safety and tolerability of rimegepant 75 mg in study participants is based upon review of both adverse events and regularly scheduled liver function tests. Interim hepatic data were reviewed by an external and independent panel of liver experts. […] In the aggregate, it was noted that compared to migraine trials with drugs other than rimegepant, there was a very low incidence of overall elevations of liver function test abnormalities in rimegepant treated patients (1.0% incidence of serum ALT or AST >3x ULN). Subjects will continue to participate in Study 201 with additional data analyses to be submitted in the NDA and required 120-day safety updates.

patients with migraine = experiment: BHV3000-201: reduction in headache days (migraines) per month, treatment vs observation phase; type: in vivo, human
Source text: Study Design • Study Type: Interventional (Clinical Trial) • Estimated Enrollment: 2000 participants • Intervention Model: Single Group Assignment • Masking: None (Open Label) • Primary Purpose: Treatment • Official Title: A Multicenter, Open Label Long-Term Safety Study of BHV3000 in the Acute Treatment of Migraine • Actual Study Start Date: Aug. 30, 2017 • Estimated Primary Completion Date: July 2019 • Estimated Study Completion Date: July 2019 In addition to the interim safety analysis, data from subjects was assessed to determine reductions in the number of headache days per month.

What does the source list for `N[C@@H]1c2cccnc2[C@H](OC(=O)N2CCC(n3c(=O)[nH]c4ncccc43)CC2)CC[C@H]1c1cccc(F)c1F` [Rimegepant, [(55,65,9R)-5-amino-6-(2,3-difluorophenyl)-6,7,8,9-tetrahydro-5H-cyclohepta[b]pyridin-9-yl]4-(2-oxo-3H-imidazo[4,5-b]pyridin-1-yl)piperidine-1-carboxylate]?
SAE related to the study drug [1]: No SAE; bilirubin elevations >2 times ULN [1]: No bilirubin elevations; transaminase level >5 times ULN [1]: no subject; safety and tolerability profile ([1]; 75 mg oral tablet): favorable tolerability and safety; AE dizziness ([1]; 4/546 subjects): 0.7%; AE nausea ([1]; 5/546 subjects): 0.9%; Serum ALT or AST levels greater than ULN ([1]; 11/546 subjects): 2.0%; Serious AEs (SAEs) ([1]; n=2, both not dosed before onset): 0.4%; LFTs >3xULN [2]: one patient; safety and tolerability [2]: consistent with the profile previously observed in Study 301; highest incidence of any single adverse event (AE) ([2]; 48 h): ≤ 1.6%; safety and tolerability of long-term dosing ([3]; Study 201 interim analysis): consistent with the profile observed in phase 1- 3 studies; incidence of serum ALT or AST >3x ULN ([3]; Study 201 interim, 75 mg up to once daily): 1.0%; liver safety signal ([3]; Study 201 interim, incl. near-daily dosing (>=15 doses/month)): no liver safety signal detected; liver cases assessed as probably related to study drug ([3]; Study 201 interim, independent liver panel): no liver cases; subjects with > = 20.0% decrease, number (patients with migraine; Overall, n 1731): 683; subjects with > = 25.0% decrease, number (patients with migraine; Overall, n 1731): 602; subjects with > = 30.0% decrease, number (patients with migraine; Overall, n 1731): 523; subjects with > = 35.0% decrease, number (patients with migraine; Overall, n 1731): 442; subjects with > = 40.0% decrease, number (patients with migraine; Overall, n 1731): 362; subjects with > = 45.0% decrease, number (patients with migraine; Overall, n 1731): 287; subjects with > = 50.0% decrease, number (patients with migraine; Overall, n 1731): 226; onset of reductions in the mean number of headache days per month (patients with migraine; Study 201): as early as the first month
